Measured values published in patent publication US12331040B2 (Karyopharm Therapeutics Inc., priority 2013, dated 2025).

Columns and labels:
Experiment in all cases: MTT cell proliferation assay
Type in all cases: cell-based
Z138 cells = details: Homo sapiens, Z-138, Z138 cells; approximately 64-72 hours incubation; read-out: MTT Assay IC50 Z-138
Method in brief: (§1)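 5,000-10,000 cells/well, overnight attach; 8 conc., 1 nM–30 μM; MTT ~4 h; formazan solubilized, OD 490 nm; % inhibition = (1−(ODo/OD))×100 vs neg. control; mostly duplicate, mean±SE.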

3T3 cells = details: Mus musculus, NIH3T3, approximately 64-72 hours incubation, read-out: MTT Assay IC50 3T3
Method in brief: as §1

MS751 cells = details: Homo sapiens, MS751, MS751 cells; approximately 64-72 hours incubation; read-out: MTT Assay IC50 MS-751
Method in brief: as §1

| SMILES | IC50 (Z138 cells) | IC50 (3T3 cells) | IC50 (MS751 cells) |
| --- | --- | --- | --- |
| Nc1ccc(/C=C/C(=O)NCc2cc3cc(-c4ccc(C(=O)N5CCCCC5)cc4)cc(C(F)(F)F)c3o2)cn1 [Compound 595, (E)-3-(6-aminopyridin-3-yl)-N-((5-(4-(piperidine-1-carbonyl)phenyl)-7-(trifluoromethyl)benzofuran-2-yl)methyl)acrylamide] | 0.1 to 5 µM | > 10 µM | 0.1 to 5 µM |
| Nc1ccc(/C=C/C(=O)NCc2cc3cc(-c4ccc(C(=O)N5CCC(F)(F)CC5)cc4)cc(Cl)c3o2)cn1 [Compound 596, (E)-3-(6-aminopyridin-3-yl)-N-((7-chloro-5-(4-(4,4-difluoropiperidine-1-carbonyl)phenyl)benzofuran-2-yl)methyl)acrylamide] | 0.1 to 5 µM | > 10 µM | 0.1 to 5 µM |
| Nc1ccc(/C=C/C(=O)NCc2cc3cc(-c4ccc(C(=O)N5CCC(F)CC5)cc4)cc(Cl)c3o2)cn1 [Compound 598, (E)-3-(6-aminopyridin-3-yl)-N-((7-chloro-5-(4-(4-fluoropiperidine-1-carbonyl)phenyl)benzofuran-2-yl)methyl)acrylamide] | 0.1 to 5 µM | > 10 µM | 0.1 to 5 µM |
| CC1(F)CN(C(=O)c2ccc(-c3cc(Cl)c4oc(CNC(=O)/C=C/c5ccc(N)nc5)cc4c3)cc2)C1 [Compound 599, (E)-3-(6-aminopyridin-3-yl)-N-((7-chloro-5-(4-(3-fluoro-3-methylazetidine-1-carbonyl)phenyl)benzofuran-2-yl)methyl)acrylamide] | 0.1 to 5 µM | 5 to 10 µM | 0.1 to 5 µM |
| Nc1ccc(/C=C/C(=O)NCc2cc3cc(-c4ccc(C(=O)N5CCCCC5)cc4)cc(Cl)c3o2)cn1 [Compound 600, (E)-3-(6-aminopyridin-3-yl)-N-((7-chloro-5-(4-(piperidine-1-carbonyl)phenyl)benzofuran-2-yl)methyl)acrylamide] | 0.1 to 5 µM | > 10 µM | 5 to 10 µM |
| Nc1ccc(/C=C/C(=O)NCc2cc3cc(-c4ccc(C(=O)N5CCNCC5)cc4)cc(Cl)c3o2)cn1 [Compound 601] | 0.1 to 5 µM | > 10 µM | 0.1 to 5 µM |
| CC1(O)CCN(C(=O)c2ccc(-c3cc(Cl)c4oc(CNC(=O)/C=C/c5ccc(N)nc5)cc4c3)cc2)CC1 [Compound 602, (E)-3-(6-aminopyridin-3-yl)-N-((7-chloro-5-(4-(4-hydroxy-4-methylpiperidine-1-carbonyl)phenyl)benzofuran-2-yl)methyl)acrylamide] | 0.1 to 5 µM | > 10 µM | 0.1 to 5 µM |
| Nc1ccc(/C=C/C(=O)NCc2cc3cc(-c4ccc(C(=O)N5CCC(F)(F)C5)cc4)cc(C(F)(F)F)c3o2)cn1 [Compound 603, (E)-3-(6-aminopyridin-3-yl)-N-((5-(4-(3,3-difluoropyrrolidine-1-carbonyl)phenyl)-7-(trifluoromethyl)benzofuran-2-yl)methyl)acrylamide] | 0.1 to 5 µM | > 10 µM | 0.1 to 5 µM |
| CC1(F)CCN(C(=O)c2ccc(-c3cc(C(F)(F)F)c4oc(CNC(=O)/C=C/c5ccc(N)nc5)cc4c3)cc2)CC1 [Compound 604, (E)-3-(6-aminopyridin-3-yl)-N-((5-(4-(4-fluoro-4-methylpiperidine-1-carbonyl)phenyl)-7-(trifluoromethyl)benzofuran-2-yl)methyl)acrylamide] | 0.1 to 5 µM | > 10 µM | 0.1 to 5 µM |
| Nc1ccc(/C=C/C(=O)NCc2cc3cc(-c4ccc(C(=O)N5CCC(C(F)(F)F)CC5)cc4)cc(C(F)(F)F)c3o2)cn1 [Compound 605, (E)-3-(6-aminopyridin-3-yl)-N-((7-(trifluoromethyl)-5-(4-(4-(trifluoromethyl)piperidine-1-carbonyl)phenyl)benzofuran-2-yl)methyl)acrylamide] | 0.1 to 5 µM | > 10 µM | 0.1 to 5 µM |
| Nc1ccc(/C=C/C(=O)NCc2cc3cc(-c4ccc(C(=O)N5CCC(O)(C(F)(F)F)C5)cc4)cc(C(F)(F)F)c3o2)cn1 (stereo not drawn) [Compound 606, (E)-3-(6-aminopyridin-3-yl)-N-((5-(4-(3-hydroxy-3-(trifluoromethyl)pyrrolidine-1-carbonyl)phenyl)-7-(trifluoromethyl)benzofuran-2-yl)methyl)acrylamide] | 0.1 to 5 µM | > 10 µM | 0.1 to 5 µM |
| Nc1ccc(/C=C/C(=O)NCc2cc3cc(-c4ccc(C(=O)N5CCC(Cl)CC5)cc4)cc(C(F)(F)F)c3o2)cn1 [Compound 607, (E)-3-(6-aminopyridin-3-yl)-N-((5-(4-(4-chloropiperidine-1-carbonyl)phenyl)-7-(trifluoromethyl)benzofuran-2-yl)methyl)acrylamide] | 0.1 to 5 µM | > 10 µM | 0.1 to 5 µM |
| CC1(F)CCN(C(=O)c2ccc(-c3cc(C(F)(F)F)c4oc(CNC(=O)/C=C/c5ccc(N)nc5)cc4c3)cc2)C1 (stereo not drawn) [Compound 608, (E)-3-(6-aminopyridin-3-yl)-N-((5-(4-(3-fluoro-3-methylpyrrolidine-1-carbonyl)phenyl)-7-(trifluoromethyl)benzofuran-2-yl)methyl)acrylamide] | 0.1 to 5 µM | > 10 µM | 0.1 to 5 µM |
| Nc1ccc(/C=C/C(=O)NCc2cc3cc(-c4ccc(C(=O)N5CCC(O)(C(F)(F)F)CC5)cc4)cc(C(F)(F)F)c3o2)cn1 [Compound 609, (E)-3-(6-aminopyridin-3-yl)-N-((5-(4-(4-hydroxy-4-(trifluoromethyl)piperidine-1-carbonyl)phenyl)-7-(trifluoromethyl)benzofuran-2-yl)methyl)acrylamide] | 0.1 to 5 µM | > 10 µM | 0.1 to 5 µM |
| Nc1ccc(/C=C/C(=O)NCc2cc3cc(-c4ccc(C(=O)N5CC[C@H](Cl)C5)cc4)cc(C(F)(F)F)c3o2)cn1 [Compound 610, (S,E)-3-(6-aminopyridin-3-yl)-N-((5-(4-(3-chloropyrrolidine-1-carbonyl)phenyl)-7-(trifluoromethyl)benzofuran-2-yl)methyl)acrylamide] | 0.1 to 5 µM | > 10 µM | 0.1 to 5 µM |
| Nc1ccc(/C=C/C(=O)NCc2cc3cc(-c4ccc(C(=O)N5CC6(COC6)C5)cc4)cc(C(F)(F)F)c3o2)cn1 [Compound 611, (E)-N-((5-(4-(2-oxa-6-azaspiro[3.3]heptane-6-carbonyl)phenyl)-7-(trifluoromethyl)benzofuran-2-yl)methyl)-3-(6-aminopyridin-3-yl)acrylamide] | < 0.1 µM | > 10 µM | < 0.1 µM |
| Nc1ccc(/C=C/C(=O)NCc2cc3cc(-c4ccc(C(=O)N5CCC(F)(F)C5)cn4)cc(C(F)(F)F)c3o2)cn1 [Compound 612, (E)-3-(6-aminopyridin-3-yl)-N-((5-(5-(3,3-difluoropyrrolidine-1-carbonyl)pyridin-2-yl)-7-(trifluoromethyl)benzofuran-2-yl)methyl)acrylamide] | < 0.1 µM | > 10 µM | 0.1 to 5 µM |
| Nc1ccc(/C=C/C(=O)NCc2cc3cc(-c4ccc(C(=O)N5CCC(O)(C(F)(F)F)C5)cn4)cc(C(F)(F)F)c3o2)cn1 (stereo not drawn) [Compound 613, (E)-3-(6-aminopyridin-3-yl)-N-((5-(5-(3-hydroxy-3-(trifluoromethyl)pyrrolidine-1-carbonyl)pyridin-2-yl)-7-(trifluoromethyl)benzofuran-2-yl)methyl)acrylamide] | < 0.1 µM | > 10 µM | 0.1 to 5 µM |
